According to patent US20210130473A1, “TGFßR1 INHIBITOR-ASGR ANTIBODY CONJUGATES AND USES THEREOF” (Silverback Therapeutics, Inc., priority 2019, published 2021):

Tests used:
ALK5 = biological target: T1, ALK5 (Homo sapiens, UniProt P36897); assay: ALK5 enzyme inhibition assay (casein substrate, 10 uM ATP, 33P-ATP, filter-binding; Reaction Biology Corp); format: biochemical
T1 construct: purchased Reaction Biology Corp (Malvern, Pa.)
T1 sequence (P36897 34-503): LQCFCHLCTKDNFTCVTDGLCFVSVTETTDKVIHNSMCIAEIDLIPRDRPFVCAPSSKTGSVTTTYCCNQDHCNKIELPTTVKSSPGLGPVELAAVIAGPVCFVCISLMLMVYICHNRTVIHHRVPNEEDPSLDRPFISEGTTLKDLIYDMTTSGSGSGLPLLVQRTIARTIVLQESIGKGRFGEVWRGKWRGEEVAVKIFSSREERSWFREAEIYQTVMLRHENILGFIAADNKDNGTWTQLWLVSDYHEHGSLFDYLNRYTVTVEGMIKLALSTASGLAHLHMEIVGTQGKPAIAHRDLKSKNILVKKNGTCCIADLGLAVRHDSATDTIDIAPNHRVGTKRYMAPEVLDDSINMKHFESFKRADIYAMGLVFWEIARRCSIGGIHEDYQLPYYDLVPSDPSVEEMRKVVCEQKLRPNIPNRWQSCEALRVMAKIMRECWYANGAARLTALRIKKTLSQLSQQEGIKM
Experimental: ALK5 enzyme inhibition assays were performed by Reaction Biology Corp (Malvern, Pa.). 1 mg/mL of peptide substrate (casein) and 10 uM ATP were prepared in a mixture of fresh reaction buffer. The kinase was delivered into the substrate solution which was gently mixed. Compounds in 100% DMSO were added to the kinase reaction mixture by Acoustic technology (Echo550; nanoliter range) and the mixture was incubated for 20 min at room temperature. ^33P-ATP (Specific activity 10 uCi/uL) was added into the reaction mixture to initiate the reaction and the reaction mixture was incubated for 2 hours at room temperature. Radioactivity was detected by filter-binding method and kinase activity data were expressed as the percent remaining kinase activity in test samples compared to vehicle (dimethyl sulfoxide) reactions. IC50 values and curve fits were obtained using Prism (GraphPad Software).

[1] = test system: TGFβ/SMAD Signaling Pathway SBE reporter cell line; assay: TGFb reporter assay in HEK293 SBE-LUC reporter cells (luciferase); format: cell-based; conditions: Homo sapiens, key of the table says IC50, read-out: EC50 (the source's name)
Experimental: TGFβ/SMAD Signaling Pathway SBE reporter cell line was obtained from BPS Bioscience. Cells are passed, expanded, and stored in liquid nitrogen as per the supplier's instructions with the exception that growth media is changed to DMEM-C with Geneticin (DMEM supplemented with 10% fetal bovine serum, 1×NEAA, 1 mM Pyruvate, 2 mM glutamine, 50 μg/mL penicillin, 50 U/mL streptomycin and 400 μg/mL of Geneticin). The assay media is MEM supplemented with 0.5% fetal bovine serum, 1×NEAA, 1 mM Pyruvate, 50 μg/mL penicillin and 50 U/mL streptomycin.
Compounds are assayed to measure their activity as ALK5 inhibitors.
The HEK293 SBE-LUC reporter cells from Example 15 were grown in DMEM-C with Geneticin (DMEM supplemented with […], 1×NEAA, 1 mM Pyruvate, 2 mM glutamine, 50 μg/mL penicillin, 50 U/mL streptomycin and 400 ug/mL of Geneticin). The assay media was MEM supplemented with 0.5% fetal bovine serum, 1×NEAA, 1 mM Pyruvate, 50 μg/mL penicillin and 50 U/mL streptomycin.
The HEK293 SBE-LUC reporter cells were harvested from the tissue culture flasks by incubation in small quantity of Versene at room temperature for three to five minutes after the media in the flask is removed and cells rinsed with PBS. Cells were counted and diluted in the assay media at ˜0.8×10^6 cells/mL then 50 uL/well were added to 96-well assay plate. Test samples (at desired concentrations diluted in assay media) were added to assay plate containing the 50 uL/well of cells (or media only), 50 uL per well, and incubated for 5-6 hours at 37° C. in a 5% CO2 humidified incubator. After that time, 15 uL of TGFb diluted to 12.5 ng/mL in the assay media was added to the plate. Controls included TGFb titration (from 25 to 0 ng/mL) without inhibitors, and media only (without cells, inhibitor or TGFb). Plates were incubated at 37° C. in a 5% CO2 humidified incubator for 18h. Luciferase substrate solution was subsequently added at 75 uL per well, incubated in dark with shaking at room temperature for 10 min, and luminescence was measured using a luminometer.

| IC50 (ALK5; Table 12) | IC50 [1] | IC50 (ALK5; Table 11) | Compound |
| --- | --- | --- | --- |
| 1000 to 10000 nM | 100 to 1000 nM | – | Cc1cccc(-c2nc(CNc3cccc4c3CC(N)C4)[nH]c2-c2ccc3ncnn3c2)n1 (stereo not shown) [Compound 1.22] |
| 10 to 100 nM | 100 to 1000 nM | – | CC(=O)NC1Cc2cccc(NCc3nc(-c4cccc(C)n4)c(-c4ccc5ncnn5c4)[nH]3)c2C1 (stereo not shown) [Compound 1.23] |
| 100 to 1000 nM | 100 to 1000 nM | – | Cc1cccc(-c2nc(CNc3ccc4c(c3)CC(N)C4)[nH]c2-c2ccc3ncnn3c2)n1 (stereo not shown) [Compound 1.24] |
| 100 to 1000 nM | 10 to 100 nM | – | Cc1cccc(-c2nc(CN[C@@H]3CCc4ccccc43)[nH]c2-c2ccn3ncnc3c2)n1 [Compound 1.30] |
| 100 to 1000 nM | 100 to 1000 nM | – | Cc1cccc(-c2nc(CNc3cccc4c3CNC4)[nH]c2-c2ccn3ncnc3c2)n1 [Compound 1.31] |
| 10 to 100 nM | 100 to 1000 nM | – | Cc1cccc(-c2nc(CN[C@H]3CCCC[C@@H]3F)[nH]c2-c2ccn3ncnc3c2)n1 [Compound 1.32] |
| 100 to 1000 nM | 100 to 1000 nM | – | Cc1cccc(-c2nc(CN[C@H]3CCCC[C@H]3F)[nH]c2-c2ccn3ncnc3c2)n1 [Compound 1.33] |
| 100 to 1000 nM | 100 to 1000 nM | – | Cc1cccc(-c2nc(CN[C@H]3CCc4ccccc43)[nH]c2-c2ccn3ncnc3c2)n1 [Compound 1.34] |
| 1000 to 10000 nM | 100 to 1000 nM | – | Cc1cccc(-c2nc(C3CCCNC3)[nH]c2-c2ccc3ncnn3c2)n1 (stereo not shown) [Compound 1.48] |
| 1000 to 10000 nM | 100 to 1000 nM | – | Cc1cccc(-c2nc(C3CCN(C(=O)OC(C)(C)C)C3)[nH]c2-c2ccc3ncnn3c2)n1 (stereo not shown) [Compound 1.51] |
| 1000 to 10000 nM | 100 to 1000 nM | – | Cc1cccc(-c2nc(C3CN(C(=O)OC(C)(C)C)C3)[nH]c2-c2ccc3ncnn3c2)n1 [Compound 1.52] |
| 1000 to 10000 nM | 1000 to 10000 nM | – | Cc1cccc(-c2nc(C34CCC(N)(CC3)CC4)[nH]c2-c2ccc3ncnn3c2)n1 [Compound 1.55] |
| – | 10 to 100 nM | 100 to 1000 nM | Cc1cccc(-c2nc(CNCc3cccc(Cl)c3)[nH]c2-c2ccc3ncnn3c2)n1 [Compound 2] |
| – | 10 to 100 nM | 1000 to 10000 nM | Cc1cccc(-c2nc(CNCc3ccc(Cl)cc3)[nH]c2-c2ccc3ncnn3c2)n1 [Compound 3] |
| – | 100 to 1000 nM | 100 to 1000 nM | Cc1cccc(-c2nc(CNCc3ccc(Cl)c(Cl)c3)[nH]c2-c2ccc3ncnn3c2)n1 [Compound 4] |
| – | 10 to 100 nM | 50 to 100 nM | Cc1cccc(-c2nc(CNCc3cc(Cl)ccc3Cl)[nH]c2-c2ccc3ncnn3c2)n1 [Compound 5] |
| – | 0.1 to 10 nM | 0.1 to 50 nM | Cc1cccc(-c2nc(CNCc3c(Cl)cccc3Cl)[nH]c2-c2ccc3ncnn3c2)n1 [Compound 6] |
| – | 0.1 to 10 nM | 100 to 1000 nM | COc1cccc(CNCc2nc(-c3cccc(C)n3)c(-c3ccc4ncnn4c3)[nH]2)c1 [Compound 7] |
| – | 100 to 1000 nM | 1000 to 10000 nM | COc1ccc(CNCc2nc(-c3cccc(C)n3)c(-c3ccc4ncnn4c3)[nH]2)cc1 [Compound 8] |
| – | 10 to 100 nM | 100 to 1000 nM | COc1ccc(OC)c(CNCc2nc(-c3cccc(C)n3)c(-c3ccc4ncnn4c3)[nH]2)c1 [Compound 9] |
| – | 0.1 to 10 nM | 0.1 to 50 nM | Cc1cccc(-c2nc(CNCc3ccccc3Cl)[nH]c2-c2ccn3ncnc3c2)n1 [Compound 10] |
| – | 10 to 100 nM | 100 to 1000 nM | Cc1cccc(-c2nc(CN[C@H](C)c3ccccc3)[nH]c2-c2ccc3ncnn3c2)n1 [Compound 11] |
| – | 100 to 1000 nM | 1000 to 10000 nM | Cc1cccc(-c2nc(CN[C@@H](C)c3ccccc3)[nH]c2-c2ccc3ncnn3c2)n1 [Compound 12] |
| – | 0.1 to 10 nM | 50 to 100 nM | Cc1cccc(-c2nc(CNC(c3ccccc3)c3ccccc3)[nH]c2-c2ccc3ncnn3c2)n1 [Compound 13] |

| IC50 (ALK5; Table 12) | IC50 [1] | IC50 (ALK5; Table 11) | Compound |
| --- | --- | --- | --- |
| – | 10 to 100 nM | 50 to 100 nM | Cc1cccc(-c2nc(CN[C@@H](CO)c3ccccc3)[nH]c2-c2ccc3ncnn3c2)n1 [Compound 14] |
| – | 100 to 1000 nM | 50 to 100 nM | COC(=O)[C@H](NCc1nc(-c2cccc(C)n2)c(-c2ccc3ncnn3c2)[nH]1)c1ccccc1 [Compound 15] |
| – | 100 to 1000 nM | 0.1 to 50 nM | COC(=O)[C@@H](NCc1nc(-c2cccc(C)n2)c(-c2ccc3ncnn3c2)[nH]1)c1ccccc1 [Compound 16] |
| – | 10 to 100 nM | 50 to 100 nM | COc1ccccc1CNCc1nc(-c2cccc(C)n2)c(-c2ccc3ncnn3c2)[nH]1 [Compound 17] |
| – | 0.1 to 10 nM | 0.1 to 50 nM | Cc1cccc(-c2nc(CNCc3ccccc3F)[nH]c2-c2ccc3ncnn3c2)n1 [Compound 18] |
| – | 100 to 1000 nM | 1000 to 10000 nM | Cc1cccc(-c2nc(CNCc3ccccc3C#N)[nH]c2-c2ccc3ncnn3c2)n1 [Compound 20] |
| – | 0.1 to 10 nM | 0.1 to 50 nM | Cc1cccc(-c2nc(CNCc3ccccc3C)[nH]c2-c2ccc3ncnn3c2)n1 [Compound 21] |
| – | 0.1 to 10 nM | 0.1 to 50 nM | CCc1ccccc1CNCc1nc(-c2cccc(C)n2)c(-c2ccc3ncnn3c2)[nH]1 [Compound 22] |
| – | 0.1 to 10 nM | 50 to 100 nM | Cc1cccc(-c2nc(CNCc3ccccc3C(C)C)[nH]c2-c2ccc3ncnn3c2)n1 [Compound 23] |
| – | 0.1 to 10 nM | 0.1 to 50 nM | Cc1cccc(-c2nc(CNCc3ccccc3-c3ccccc3)[nH]c2-c2ccc3ncnn3c2)n1 [Compound 24] |
| – | 0.1 to 10 nM | 100 to 1000 nM | Cc1cccc(-c2nc(CNCc3ccccc3N(C)C)[nH]c2-c2ccc3ncnn3c2)n1 [Compound 25] |
| – | 0.1 to 10 nM | 0.1 to 50 nM | Cc1cccc(-c2nc(CNCc3ccccc3OC(F)(F)F)[nH]c2-c2ccc3ncnn3c2)n1 [Compound 26] |
| – | 0.1 to 10 nM | 50 to 100 nM | Cc1cccc(-c2nc(CNCc3ccccc3CC(F)(F)F)[nH]c2-c2ccc3ncnn3c2)n1 [Compound 27] |
| – | 0.1 to 10 nM | 0.1 to 50 nM | Cc1cccc(-c2nc(CNCc3ccccc3C(O)C(F)(F)F)[nH]c2-c2ccc3ncnn3c2)n1 (stereo not shown) [Compound 28] |
| – | 100 to 1000 nM | 100 to 1000 nM | Cc1cccc(-c2nc(CNCc3ccccc3-c3ccccc3CNC(=O)OC(C)(C)C)[nH]c2-c2ccc3ncnn3c2)n1 [Compound 29] |
| – | 100 to 1000 nM | 100 to 1000 nM | Cc1cccc(-c2nc(CNCc3ccccc3-c3cccc(CNC(=O)OC(C)(C)C)c3)[nH]c2-c2ccc3ncnn3c2)n1 [Compound 30] |
| – | 100 to 1000 nM | 100 to 1000 nM | Cc1cccc(-c2nc(CNCc3ccccc3-c3ccc(CNC(=O)OC(C)(C)C)cc3)[nH]c2-c2ccc3ncnn3c2)n1 [Compound 31] |
| – | 100 to 1000 nM | 100 to 1000 nM | Cc1cccc(-c2nc(CNCc3ccccc3-c3ccccc3CN)[nH]c2-c2ccc3ncnn3c2)n1 [Compound 32] |
| – | 100 to 1000 nM | 100 to 1000 nM | Cc1cccc(-c2nc(CNCc3ccccc3-c3cccc(CN)c3)[nH]c2-c2ccc3ncnn3c2)n1 [Compound 33] |
| – | 100 to 1000 nM | 100 to 1000 nM | Cc1cccc(-c2nc(CNCc3ccccc3-c3ccc(CN)cc3)[nH]c2-c2ccc3ncnn3c2)n1 [Compound 34] |
| – | 0.1 to 10 nM | 0.1 to 50 nM | Cc1cccc(-c2nc(CNCc3ccccc3-c3ccc(F)cc3)[nH]c2-c2ccc3ncnn3c2)n1 [Compound 35] |
| – | 10 to 100 nM | 50 to 100 nM | Cc1cccc(-c2nc(CNCc3ccccc3-c3ccc(F)c(F)c3)[nH]c2-c2ccc3ncnn3c2)n1 [Compound 36] |
| – | 10 to 100 nM | 50 to 100 nM | Cc1cccc(-c2nc(CNCc3ccccc3-c3cccc(F)c3)[nH]c2-c2ccc3ncnn3c2)n1 [Compound 37] |
